Results: ChEMBL document CHEMBL1145875, “Xylylated dimers of putrescine and polyamines: influence of the polyamine backbone on spermidine transport inhibition” (Bioorg Med Chem Lett, 2003)

Biological target: T47D
Assay: (§1) Inhibition of spermidine transport determined in T-47D human breast cancer cells
Format: functional, cell-based

Row | Ki | Compound
1 | 2.1 µM | NCCCNCCCCNCCCN [SPERMINE]
2 | 9.3 µM | NCCC(CN)NCc1ccc(CNC(CN)CCN)cc1 (stereo not drawn)
3 | > 500 µM | NCCCCN [PUTRESCINE]
4 | 9.4 µM | NCCCCCCN(CCCCCCN)Cc1ccc(CN(CCCCCCN)CCCCCCN)cc1
5 | 1.1 µM | NCCCNCCCCN(CCCN)Cc1ccc(CN(CCCN)CCCCNCCCN)cc1
6 | 3.4 µM | NCCCCCNCCCCCN

Second part, the compound before the results:

Row | Compound | Ki
7 | NCCCCCN(CCCCCN)Cc1ccc(CN(CCCCCN)CCCCCN)cc1 | 2.8 µM
8 | NCCCCNCCCCN | 2.7 µM
9 | NCCCCCCNCCCCCCN | 20.9 µM
10 | NCCC(CN)OCc1ccc(COC(CN)CCN)cc1 (stereo not drawn) | 12.8 µM
11 | NCCCCN(CCCCN)Cc1ccc(CN(CCCCN)CCCCN)cc1 | 2.8 µM
12 | NCCCNCCCN [NORSPERMIDINE] | 9.5 µM

System: T47D
Assay: as §1
Format: functional, cell-based

Row | Compound | Km
13 | NCCCCNCCCN | 4.4 µM
